Test results as given in US11998540B2, “Compositions and methods for treating drug-tolerant glioblastoma” (THE GENERAL HOSPITAL CORPORATION, priority 2015, dated 2024).
“Also recorded” adds a separate entry of the source.

Legend:
GSC8 [1] = experiment: Cell growth assay ([…]-GLO), GSC8 naïve; format: cell-based, human; details: for sensitivity / effect on cell growth (dose-response): 4 day treatment, GSC8 naïve
Description: (§1) Patient-derived GSC culture lines were maintained in Neurobasal medium (Life Technologies) supplemented with N2/B27, penicillin/streptomycin (Life Technologies), GlutaMAX (Life Technologies), recombinant human EGF (20 ng/mL, R & D systems), and recombinant human FGF2 (20 ng/mL, R & D systems). For drug persister cultures, fresh compound and media were replenished every 4-6 days.
(§2) Freshly dissociated single cell suspensions were plated (96-well) in triplicate or quadruplicate at 1,000 to 10,000 cells/well for testing. For 4 day growth assays, […]-GLO® Luminescent Cell Viability Assay (Promega) was added to wells and end point luminescence was measured (BioTek Synergy HT Platereader). For 12 day assays, 1× compound in media was added at day 4 and all wells were replated with fresh media and compound at day 8 before viability was measured at day 12. For each inhibitor, n=3 replicates were used for each concentration and was repeated in two to four independent experiments.

GSC8^Per = experiment: Cell growth assay (CELLTITER-GLO), dasatinib persisters GSC8^Per; format: cell-based, human; details: for growth, 12 day treatment: GSC8^Per vs GSC8 naïve; for sensitivity / effect on cell growth (dose-response): 4 day treatment, GSC8^Per (>8 weeks dasatinib)
Description: as §1, §2

GSC8^12d = experiment: Cell growth assay (CELLTITER-GLO), GSC8 treated 12 days with dasatinib; format: cell-based, human; details: 4 day treatment
Description: as §1, §2

GSC8 PD0325901^Per = experiment: Cell growth assay ([…]-GLO), MEK inhibitor persisters; format: cell-based, human; details: 4 day treatment; persisters from sustained MEK inhibition
Description: as §1, §2

H3K4me3 = H3K4me3 ChIP-seq in GSC8; format: cell-based, human; details: for H3K4me3 peak width / level: naïve GSCs, KDM5-C70 2.5 μM or GSKJ4 1.5 μM, 4 d
Description: Chromatin Immunoprecipitation (ChIP) was performed as previously described (Suvà et al., 2014). Briefly, formaldehyde-fixed cells were lysed and sheared (Branson […]) on wet ice. The sheared chromatin was cleared and incubated overnight at 4° C. with the following antibodies: H3K4me3 (Millipore, 07-473, Lot 2207275), H3K27me3 (Millipore, 07-449, lot 2382150), H3K27ac (Active Motif, 39133 lot 25812006), RBPJ (Abcam, ab25949, lot GR169397-1), and cleaved Notch1 (CST, 4147, lot #4). Antibody-chromatin complexes were immunoprecipitated with protein G magnetic Dynal beads (Life Technologies), washed, eluted, reverse crosslinked, and treated with RNAse A followed by proteinase K. ChIP DNA was purified using Ampure XP beads (Beckmann Coulter) and then used to prepare sequencing libraries for sequencing with the Next-Seq Illumina genome analyzer. Reads were aligned to hg19 using BWA (Li and Durbin, 2009) and identical ChIP-seq sequence reads were collapsed to avoid PCR duplicates. In order to avoid possible saturation biases, reads were downsampled to approximately similar numbers ( 20 million reads). Peaks were called using HOMER v4.6 (Heinz et al., 2010) using matched inputs with the following parameters: H3K4me3, -histone -tagThreshold 30; H3K27ac, -histone -tagThreshold 50; H3K27me3, -histone -size 3000 -[…] 0.1; Notch1 ICD, -factor; and RBPJ, -factor. […] Quantification of the H3K27me3 ChIP-seq signals, using fore- and background normalization, was essentially performed as outlined in (Zhu et al., 2013) with few modifications. To exclude genomic regions with potential copy number aberrations, read counts derived from whole cell extracts ChIP-seq within 5 kb genomic windows were quantified. Read counts were performed using interval overlap functions of the R package Genomic Ranges (Lawrence et al., 2013). To compute normalization constants, all genomic windows with read counts equal to 0 or greater than 3 standard deviations from the mean were excluded from the analysis. For a given H3K27me3 ChIP-seq data set, the background constant was estimated as the median of the read count distribution within 5 kb windows overlapping the 5% most highly expressed genes, as active genes are considered to be devoid of repressive chromatin modifications. The foreground signal was estimated as the median of the read count distribution within 5 kb windows centered around each called peak and subtracting the background signal. To quantify H3K27me3 signal within 5 kb regions of interest, the background signal was subtracted from the corresponding read count and the resulting value divided by the foreground signal. […] In order to quantify ChIP-seq intensities within genomic regions of different sizes (e.g. genes), the obtained normalization constants were scaled accordingly. […]

H3K27me3 = H3K27me3 ChIP-seq in GSC8; format: cell-based, human
Description: Chromatin Immunoprecipitation (ChIP) was performed as previously described (Suvà et al., 2014). Briefly, formaldehyde-fixed cells were lysed and sheared (Branson […]) on wet ice. The sheared chromatin was cleared and incubated overnight at 4° C. with the following antibodies: H3K4me3 (Millipore, 07-473, Lot 2207275), H3K27me3 (Millipore, 07-449, lot 2382150), H3K27ac (Active Motif, 39133 lot 25812006), RBPJ (Abcam, ab25949, lot GR169397-1), and cleaved Notch1 (CST, 4147, lot #4). Antibody-chromatin complexes were immunoprecipitated with protein G magnetic Dynal beads (Life Technologies), washed, eluted, reverse crosslinked, and treated with RNAse A followed by proteinase K. ChIP DNA was purified using Ampure XP beads (Beckmann Coulter) and then used to prepare sequencing libraries for sequencing with the Next-Seq Illumina genome analyzer. Reads were aligned to hg19 using BWA (Li and Durbin, 2009) and identical ChIP-seq sequence reads were collapsed to avoid PCR duplicates. In order to avoid possible saturation biases, reads were downsampled to approximately similar numbers ( 20 million reads). […] Quantification of the H3K27me3 ChIP-seq signals, using fore- and background normalization, was essentially performed as outlined in (Zhu et al., 2013) with few modifications. To exclude genomic regions with potential copy number aberrations, read counts derived from whole cell extracts ChIP-seq within 5 kb genomic windows were quantified. Read counts were performed using interval overlap functions of the R package Genomic Ranges (Lawrence et al., 2013). To compute normalization constants, all genomic windows with read counts equal to 0 or greater than 3 standard deviations from the mean were excluded from the analysis. For a given H3K27me3 ChIP-seq data set, the background constant was estimated as the median of the read count distribution within 5 kb windows overlapping the 5% most highly expressed genes, as active genes are considered to be devoid of repressive chromatin modifications. […]

KDMs = experiment: qRT-PCR of KDM gene expression in GSC8; format: cell-based, human; details: 48 hr drug treatment in GSC8
Description: Whole RNA was extracted from 1-3×10^6 cells using the QIAGEN RNeasy kit according to the manufacturer's protocol. For qRT-PCR, total RNA was reverse-transcribed into cDNA (High Capacity cDNA Reverse Transcriptase Kit, Applied Biosystems) and qRT-PCR amplification was performed using fast SYBR Green Master Mix (Life Technologies) with specific PCR primers for genes of interest and 18S as an endogenous control. Relative quantification for each target was performed using the comparative Ct method (Applied Biosystems). For RNA-seq library preparation, Poly(A)^+ RNA was enriched using magnetic oligo(dT)-beads (Life Technologies) and libraries were prepared as previously described (Gifford et al., 2013). Sequences for qRT-PCR primers used are listed at Table 3.

GSC8 [2] = experiment: Flow cytometry for Ki67 and EdU incorporation in GSC8; details: 1 μM

Question: Which “growth, 12 day treatment” value (GSC8 [1]; 12 day treatment, naïve GSC8) does the source give for `C[C@H](NC(=O)Cc1cc(F)cc(F)c1)C(=O)N[C@H]1N=C(c2ccccc2)c2ccccc2N(C)C1=O` [Compound E] here?
Answer: The value was “little effect”.

Question: What about the “growth, 12 day treatment” value (GSC8^Per) of the same compound?
Answer: The value was “preferentially sensitive”.

Question: And the “growth, 12 day treatment” value (GSC8^Per; listed as Notch inhibitor (γ-secretase))?
Answer: The value was “significantly reduced”.

Question: Which “sensitivity / effect on cell growth (dose-response)” value (“sensitivity / effect on cell growth” below) (GSC8 [1]) does the source give for `CCOC(=O)CCNc1cc(N2CCc3ccccc3CC2)nc(-c2ccccn2)n1` [GSKJ4] here?
Answer: Its value is “well tolerated”.

Question: And the “sensitivity / effect on cell growth” value (GSC8^Per)?
Answer: Its value is “preferentially sensitive; also recorded: significantly compromised viability”.

Question: What about the “sensitivity / effect on cell growth” value (GSC8^12d) of the same compound?
Answer: The value was “preferentially sensitive; also recorded: significantly compromised viability”.

Question: What about the “sensitivity / effect on cell growth” value (GSC8 PD0325901^Per) of the same compound?
Answer: Its value is “preferentially sensitive”.

Question: What about the “H3K4me3 peak width / level” value (H3K4me3) of the same compound?
Answer: Its value is “did not significantly increase H3K4me3”.

Question: What about the “rescue of H3K27me3 loss associated with dasatinib treatment” value (H3K27me3; GSC8^12d, GSKJ4 1.5 μM, 8 d, after 4 days of dasatinib) of the same compound?
Answer: The value was “rescued the dramatic H3K27me3 loss”.

Question: And the “effect on pre-existing H3K27me3 landscape” value (H3K27me3; naïve GSC8, 1.5 μM, 8 d)?
Answer: The value was “negligible effects”.

Question: Which “sensitivity / effect on cell growth” value (GSC8^Per) does the source give for `CCOC(=O)CCNc1cc(N2CCc3ccccc3CC2)nc(-c2cccnc2)n1` [GSKJ5] here?
Answer: The value was “no preferential sensitivity; also recorded: Negligible differential effects”.

Question: Which “sensitivity / effect on cell growth” value (GSC8 [1]) does the source give for `CCOC(=O)c1ccnc(CNCC(=O)N(CC)CCN(C)C)c1` [KDM5-C70] here?
Answer: The value was “subtle effects on proliferation”.

Question: And the “effect on dasatinib dose-response curve” value (GSC8 [1]; 4 day, GSC8 naïve simultaneously treated with KDM5-C70 2.5 μM vs vehicle)?
Answer: Its value is “No significant effect”.

Question: What about the “sensitivity / effect on cell growth” value (GSC8^Per) of the same compound?
Answer: The value was “subtle effects on proliferation”.

Question: And the “sensitivity / effect on cell growth” value (GSC8^12d)?
Answer: The value was “subtle effects on proliferation”.

Question: And the “H3K4me3 peak width / level” value (H3K4me3)?
Answer: The value was “caused H3K4me3 peaks to expand; also recorded: H3K4me3 peak width increases”.

Question: What about the “rescue of H3K4me3 reduction associated with dasatinib treatment” value (H3K4me3; with 4 day dasatinib) of the same compound?
Answer: Its value is “partially rescued; also recorded: significantly attenuated H3K4me3 reduction”.

Question: With `O=C(NOC[C@H](O)CO)c1ccc(F)c(F)c1Nc1ccc(I)cc1F` [PD0325901] as the compound, how does the “sensitivity / effect on cell growth” value (GSC8 [1]) read?
Answer: The value was “differentially sensitive”.

Question: What about the KDM gene expression (KDMs) of the same compound?
Answer: The KDM gene expression was “KDM induction; also recorded: up-regulation of numerous KDMs”.

Question: How did the “sensitivity / effect on cell growth” value (GSC8 [1]) turn out when `CC1(COc2ccc3c(c2)ncn3-c2ccc3cccc(N4CCC(N)CC4)c3n2)COC1` [crenolanib] was run?
Answer: The value was “preferentially sensitive”.

Question: And the “sensitivity / effect on cell growth” value (GSC8^Per)?
Answer: Its value is “relatively insensitive; also recorded: tolerated higher concentrations”.

Question: How did the IC50 (GSC8 [1]; Homo sapiens, 96 h) turn out when `Cc1nc(Nc2ncc(C(=O)Nc3c(C)cccc3Cl)s2)cc(N2CCN(CCO)CC2)n1` [dasatinib] was run?
Answer: The IC50 was ~10 nM.

Question: And the “sensitivity / effect on cell growth” value (GSC8^Per)?
Answer: Its value is “relatively insensitive; also recorded: tolerated higher concentrations”.

Question: What about the “H3K4me3 at cell cycle-associated promoters” value (H3K4me3; short-term dasatinib treatment) of the same compound?
Answer: Its value is “reduced”.

Question: And the “H3K27me3 peaks after drug treatment” value (H3K27me3; GSC8^12d, GSC8^Per, GSC8 PD0325901^Per)?
Answer: Its value is “strongly reduced”.

Question: And the “cell cycle effect (Ki67 / EdU)” value (GSC8 [2]; 4 d)?
Answer: Its value is “induced cell cycle arrest and G0 induction”.

Question: And the “Ki67^+ cells” value (GSC8 [2]; after 4 days of dasatinib, 93% in naïve)?
Answer: The value was 17%.
